Measured values taken from US5624923A, “Tricyclic diazepine vasopressin antagonists and oxytocin antagonists” (priority 1995, dated 1997).
Where two headings read alike, the source gives them in different places.

What was measured:
Rat Hepatic V1 Receptors = biological target: T1, Rat Hepatic V1 Receptors (Rattus norvegicus, UniProt P30560); experiment: Binding Assay to Rat Hepatic V1 Receptors
T1 construct: Rat liver plasma membranes expressing the vasopressin V1 receptor subtypes; from tissue; host or cells: rat liver plasma membranes
Experimental: Binding Assay to Rat Hepatic V1 Receptors
Rat liver plasma membranes expressing the vasopressin V1 receptor subtypes are isolated by sucrose density gradient according to the method described by Lesko et al., (1973). These membranes are quickly suspended in 50.0 mM Tris.HCl buffer, pH 7.4, containing 0.2% bovine serum albumin (BSA) and 0.1 mM phenylmethylsulfonylfluoride (PMSF) and kept frozen at -70° C. until used in subsequent binding experiments. For binding experiments, the following is added to the wells of a ninety-six well format microtiter plate: 100 μl of 100.0 mM Tris.HCl buffer containing 10.0 mM MgCl2, 0.2% heat inactivated BSA and a mixture of protease inhibitors: leupeptin, 1.0 mg %; aprotinin, 1.0 mg %; 1,10-phenanthroiine,2.0 mg %; trypsin inhibitor, 10.0 mg % and 0.1 mM PMSF, 20.0 μl of [phenylalanyl-3,4,5, -^3 H] vasopressin (S.A. 45.1 Ci/mmole) at 0.8 nM, and the reaction initiated by the addition of 80 μl of tissue membranes containing 20 μg of tissue protein. The plates are kept undisturbed on the bench top at room temperature for 120 min. to reach equilibrium. Non-specific samples are assayed in the presence of 0.1 μM of the unlabeled antagonist phenylalanylvasopressin, added in 20.0 μl volume.
(§1) For test compounds, these are solubilized in 50% dimethylsulfoxide (DMSO) and added in 20.0 μl volume to a final incubation volume of 200 μl . Upon completion of binding, the content of each well is filtered off, using a Brandel® cell Harvester (Gaithersburg, Md.). The radioactivity trapped on the filter disk by the ligand-receptor complex is assessed by liquid scintillation counting in a Packard LS Counter, with an efficiency of 65% for tritium. The data are analyzed for IC50 values by the LUNDON-2 program for competition (LUNDON SOFTWARE, Ohio).

[1] = biological target: T2, Rat Kidney Medullary V2 Receptors (Rattus norvegicus, UniProt Q00788); experiment: Binding Assay to Rat Kidney Medullary V2 Receptors; conditions: for IC50: rat kidney medulla membranes, read-out: V2 IC50
T2 construct: Medullary tissues from rat kidneys are dissected out; from tissue; host or cells: rat kidney medulla membranes
Experimental: Binding Assay to Rat Kidney Medullary V2 Receptors
Medullary tissues from rat kidneys are dissected out, cut into small pieces and soaked in a […] sodium chloride solution containing 1.0 mM EDTA with many changes of the liquid phase, until the solution is clear of blood. The tissue is homogenized in a 0.25M sucrose solution containing 1.0 mM EDTA and 0.1 mM PMSF using a Potter-Elvehjem homogenizer with a teflon pestle. The homogenate is filtered through several layers (4 layers) of cheese cloth. The filtrate is rehomogenized using a dounce homogenizer, with a tight fitting pestle. The final homogenate is centrifuged at 1500× g for 15 min. The nuclear pellet is discarded and the supernatant fluid recentrifuged at 40,000× g for 30 min. The resulting pellet formed contains a dark inner part with the exterior., slightly pink. The pink outer part is suspended in a small amount of 50.0 mM Tris. HCl buffer, pH 7.4. The protein content is determined by the Lowry's method (Lowry et al., J. Biol. Chem., 1953). The membrane suspension is stored at -70° C. in 50.0 mM Tris HCl, containing 0.2% inactivated BSA and 0.1 mM PMSF in aliquots of 1.0 ml containing 10.0 mg protein per ml of suspension until use in subsequent binding experiments.
as §1, with “The plates are left undisturbed on the bench top for 120 min to reach equilibrium. Non-specific binding is assessed in the presence of 1.0 μM of unlabeled ligand, added in 20 μl volume. For” for “For”, “μl.” for “μl .”

Vasopressin V1 = Vasopressin V1 Antagonist Activity in Conscious Rats (vasopressin vasopressor response); format: in vivo, rat; design: Average Change: unit not given here; conditions: for % Inhibition / Average Change: SHR
Procedure, shortened: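 Conscious rats are restrained supine, and under local 2% procaine a PE 10/20 cannula is passed through the ventral caudal tail artery into the lower abdominal aorta. The caudal vein is cannulated for intravenous dosing. Blood pressure is recorded with a Statham P23Db transducer, and vasopressin injections are repeated after compound dosing. Percent antagonism is calculated against the pre-drug vasopressor response taken as 100%.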

[2] = rat liver membranes; read-out: V1 IC50
[3] = 10 mg/kg i.v., VAS 0.01 i.u./kg, 30 min
[4] = 10 mg/kg i.v., VAS 0.02 i.u./kg, 30 min
[5] = 20 mg/kg i.v., VAS 0.01 i.u./kg, 60 min
[6] = 20 mg/kg i.v., VAS 0.01 i.u./kg, 90 min
[7] = 20 mg/kg i.v., VAS 0.01 i.u./kg, 120 min
[8] = 20 mg/kg i.v., VAS 0.01 i.u./kg, 180 min
[9] = 20 mg/kg i.v., VAS 0.01 i.u./kg, 240 min
[10] = 20 mg/kg i.v., VAS 0.01 i.u./kg, 300 min
[11] = 20 mg/kg i.v., VAS 0.02 i.u./kg, 60 min
[12] = 20 mg/kg i.v., VAS 0.02 i.u./kg, 90 min
[13] = 20 mg/kg i.v., VAS 0.02 i.u./kg, 120 min
[14] = 20 mg/kg i.v., VAS 0.02 i.u./kg, 180 min
[15] = 20 mg/kg i.v., VAS 0.02 i.u./kg, 240 min
[16] = 20 mg/kg i.v., VAS 0.02 i.u./kg, 300 min
[17] = 10 mg/kg i.v., VAS 0.01 i.u./kg, 60 min
[18] = 10 mg/kg i.v., VAS 0.01 i.u./kg, 90 min
[19] = 10 mg/kg i.v., VAS 0.01 i.u./kg, 120 min
[20] = 10 mg/kg i.v., VAS 0.01 i.u./kg, 180 min
[21] = 10 mg/kg i.v., VAS 0.01 i.u./kg, 240 min
[22] = 10 mg/kg i.v., VAS 0.01 i.u./kg, 300 min
[23] = 10 mg/kg i.v., VAS 0.02 i.u./kg, 60 min
[24] = 10 mg/kg i.v., VAS 0.02 i.u./kg, 90 min
[25] = 10 mg/kg i.v., VAS 0.02 i.u./kg, 120 min
[26] = 10 mg/kg i.v., VAS 0.02 i.u./kg, 180 min
[27] = 10 mg/kg i.v., VAS 0.02 i.u./kg, 240 min
[28] = 10 mg/kg i.v., VAS 0.02 i.u./kg, 300 min

T1 sequence (P30560 whole entry): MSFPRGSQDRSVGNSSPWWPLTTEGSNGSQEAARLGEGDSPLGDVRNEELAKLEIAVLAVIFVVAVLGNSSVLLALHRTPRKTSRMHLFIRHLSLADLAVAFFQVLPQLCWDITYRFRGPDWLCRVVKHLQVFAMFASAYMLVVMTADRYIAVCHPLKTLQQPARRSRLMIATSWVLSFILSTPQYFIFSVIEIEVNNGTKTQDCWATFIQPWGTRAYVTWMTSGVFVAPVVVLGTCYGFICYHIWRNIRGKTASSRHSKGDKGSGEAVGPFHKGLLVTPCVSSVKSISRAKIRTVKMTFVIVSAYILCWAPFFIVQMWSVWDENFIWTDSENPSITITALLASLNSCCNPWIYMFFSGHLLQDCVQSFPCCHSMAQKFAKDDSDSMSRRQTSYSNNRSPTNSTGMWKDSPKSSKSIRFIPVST
T2 sequence (Q00788 whole entry): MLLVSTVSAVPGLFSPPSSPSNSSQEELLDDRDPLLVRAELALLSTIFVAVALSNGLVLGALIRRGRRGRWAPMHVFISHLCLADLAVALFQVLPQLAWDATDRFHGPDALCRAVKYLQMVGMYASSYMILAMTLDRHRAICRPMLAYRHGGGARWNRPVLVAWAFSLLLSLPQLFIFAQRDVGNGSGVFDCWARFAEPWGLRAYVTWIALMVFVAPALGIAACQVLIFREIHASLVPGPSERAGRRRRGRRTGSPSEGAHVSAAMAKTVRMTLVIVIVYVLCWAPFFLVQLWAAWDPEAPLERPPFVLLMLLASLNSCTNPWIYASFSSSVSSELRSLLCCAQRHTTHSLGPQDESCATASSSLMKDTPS

## O=C(Nc1ccc(C(=O)N2Cc3cccn3Cc3ccccc32)cc1)c1ccc2[nH]ccc2c1 [Example 117, N-[4-(5H-pyrrolo[2,1-c][1,4]benzodiazepin-10(11H)-ylcarbonyl)phenyl]-1H-indole-5-carboxamide]
Rat Hepatic V1 Receptors; [2]
  IC50: 2770 nM
[1]
  IC50: 377 nM
Vasopressin V1; [3]
  % Inhibition: 1%
  Average Change: 36
Vasopressin V1; [4]
  % Inhibition: -12%
  Average Change: 63
Vasopressin V1; [5]
  % Inhibition: 1%
  Average Change: 36
Vasopressin V1; [6]
  % Inhibition: 38%
  Average Change: 22.5
Vasopressin V1; [7]
  % Inhibition: 37%
  Average Change: 23
Vasopressin V1; [8]
  % Inhibition: 27%
  Average Change: 26.5
Vasopressin V1; [9]
  % Inhibition: 32%
  Average Change: 25
Vasopressin V1; [10]
  % Inhibition: 29%
  Average Change: 26
Vasopressin V1; [11]
  % Inhibition: 29%
  Average Change: 40
Vasopressin V1; [12]
  % Inhibition: 19%
  Average Change: 46
Vasopressin V1; [13]
  % Inhibition: 33%
  Average Change: 38
Vasopressin V1; [14]
  % Inhibition: 19%
  Average Change: 46
Vasopressin V1; [15]
  % Inhibition: 28%
  Average Change: 40.5
Vasopressin V1; [16]
  % Inhibition: 25%
  Average Change: 42.5

## Cc1c(CC(=O)Nc2ccc(C(=O)N3Cc4cccn4Cc4ccccc43)cc2)sc2ccccc12 [Example 87]
Rat Hepatic V1 Receptors; 2 h; 10 μM, rat
  inhibition at 10 µM: 63%
[1]; 10 μM, rat
  inhibition at 10 µM: 80%
Vasopressin V1; [3]
  % Inhibition: 20%
  Average Change: 50
Vasopressin V1; [4]
  % Inhibition: 14%
  Average Change: 57
Vasopressin V1; [5]
  % Inhibition: 77%
  Average Change: 14.5
Vasopressin V1; [6]
  % Inhibition: 61%
  Average Change: 24.5
Vasopressin V1; [7]
  % Inhibition: 58%
  Average Change: 26
Vasopressin V1; [8]
  % Inhibition: 58%
  Average Change: 26.5
Vasopressin V1; [9]
  % Inhibition: 54%
  Average Change: 28.5
Vasopressin V1; [10]
  % Inhibition: 52%
  Average Change: 30
Vasopressin V1; [11]
  % Inhibition: 51%
  Average Change: 32.5
Vasopressin V1; [12]
  % Inhibition: 50%
  Average Change: 33.5
Vasopressin V1; [13]
  % Inhibition: 47%
  Average Change: 35.5
Vasopressin V1; [14]
  % Inhibition: 44%
  Average Change: 37.5
Vasopressin V1; [15]
  % Inhibition: 38%
  Average Change: 41
Vasopressin V1; [16]
  % Inhibition: 27%
  Average Change: 48.5

## Cc1ccccc1NC(=O)Nc1ccc(C(=O)N2Cc3cccn3Cc3ccccc32)cc1 [Example 116, 10,11-Dihydro-10-[4-[[[(2-methylphenyl]amino]-carbonl]amino]benzoyl]-5H-pyrrolo[2,1-c]-[1,4]benzodiazepine]
Rat Hepatic V1 Receptors; read-out: V1 IC50; rat liver membranes
  IC50: 280 nM
[1]
  IC50: 85 nM
Vasopressin V1; [3]
  % Inhibition: 22%
  Average Change: 22.5
Vasopressin V1; [17]
  % Inhibition: 38%
  Average Change: 18
Vasopressin V1; [18]
  % Inhibition: 34%
  Average Change: 19
Vasopressin V1; [19]
  % Inhibition: 33%
  Average Change: 19.5
Vasopressin V1; [20]
  % Inhibition: 38%
  Average Change: 18
Vasopressin V1; [21]
  % Inhibition: 45%
  Average Change: 16
Vasopressin V1; [22]
  % Inhibition: 24%
  Average Change: 22
Vasopressin V1; [4]
  % Inhibition: 24%
  Average Change: 36.5
Vasopressin V1; [23]
  % Inhibition: 30%
  Average Change: 33.5
Vasopressin V1; [24]
  % Inhibition: 33%
  Average Change: 32
Vasopressin V1; [25]
  % Inhibition: 17%
  Average Change: 40
Vasopressin V1; [26]
  % Inhibition: 17%
  Average Change: 40
Vasopressin V1; [27]
  % Inhibition: 20%
  Average Change: 38.5
Vasopressin V1; [28]
  % Inhibition: 14%
  Average Change: 41.5

## Cc1ccccc1C(=O)Nc1ccc(C(=O)N2Cc3ccc(Cl)n3Cc3ccccc32)cc1 [Example 41, N-[4-(3-Chloro-5H-pyrrolo[2,1c][1,4]benzodiazepine10(11H)ylcarbonyl)phenyl]-2-methylbenzamide]
Rat Hepatic V1 Receptors; [2]
  IC50: 37 nM
[1]
  IC50: 17 nM
Vasopressin V1; [3]
  % Inhibition: 45%
  Average Change: 12
Vasopressin V1; [17]
  % Inhibition: 59%
  Average Change: 9
Vasopressin V1; [18]
  % Inhibition: 36%
  Average Change: 14
Vasopressin V1; [19]
  % Inhibition: 36%
  Average Change: 14
Vasopressin V1; [20]
  % Inhibition: 39%
  Average Change: 13.5
Vasopressin V1; [21]
  % Inhibition: 43%
  Average Change: 12.5
Vasopressin V1; [22]
  % Inhibition: 32%
  Average Change: 15
Vasopressin V1; [4]
  % Inhibition: 53%
  Average Change: 23.5
Vasopressin V1; [23]
  % Inhibition: 64%
  Average Change: 18
Vasopressin V1; [24]
  % Inhibition: 55%
  Average Change: 22.5
Vasopressin V1; [25]
  % Inhibition: 67%
  Average Change: 16.5
Vasopressin V1; [26]
  % Inhibition: 58%
  Average Change: 21
Vasopressin V1; [27]
  % Inhibition: 53%
  Average Change: 23.5
Vasopressin V1; [28]
  % Inhibition: 47%
  Average Change: 27

## O=C(Nc1ccc(C(=O)N2Cc3cccn3Cc3ccccc32)cc1)C1CCCO1 (centres unmarked) [Example 600, N-[4-(5H-Pyrrolo[2,1-c][1,4]benzodiazepin-10(11H)-ylcarbonyl)phenyl]tetrahydrofurane-2-carboxamide]
Rat Hepatic V1 Receptors; [2]
  IC50: 420 nM
[1]
  IC50: 740 nM
Vasopressin V1; 30 mg/kg i.v.
  Max. % Inhibition: 78%
  Time (of max. % inhibition): 60 min

## Cc1ccccc1C(=O)Nc1ccc(C(=O)N2Cc3cccn3Cc3sccc32)cc1 [Example 267, N-[4-(5H-Pyrrolo[1,2-a]thieno[3,2-e][1,4]diazepin-4(10H)-ylcarbonyl)phenyl]-2-methylbenzamide]
Rat Hepatic V1 Receptors; [2]
  IC50: 220 nM
[1]
  IC50: 28 nM
Vasopressin V1; 10 mg/kg i.v.
  Max. % Inhibition: 56%
  Time (of max. % inhibition): 60 min
